The target of this test is Recombinant human KIF18A (1-467His-tagged) protein (Homo sapiens (Human), UniProt Q8NI77). In words: KIF18A enzyme assay (microtubule-stimulated ATPase activity, ADP-Glo). Format: biochemical. The settings on record: 30 nM KIF18A, ATP 75 μM, read-out: inhibitory activity against KIF18A IC50. In short, it runs like this:
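Baculovirus-expressed human KIF18A (1-467, His-tagged; 30 nM) preincubated 15 min at room temperature with compound (22-point 2-fold series) in pH 7.5 Tris buffer containing 30 μg/mL pig microtubules and 1 μM paclitaxel.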
(ADP-Glo first removes unused ATP, then detects ADP through luciferase.)

Here are results for 58 compounds from US20250197382A1, “KIF18A INHIBITOR” (WIGEN BIOMEDICINE TECHNOLOGY (SHANGHAI) CO., LTD., priority 2022, published 2025).

Recombinant human KIF18A (1-467His-tagged) protein, sequence (Q8NI77 1-467): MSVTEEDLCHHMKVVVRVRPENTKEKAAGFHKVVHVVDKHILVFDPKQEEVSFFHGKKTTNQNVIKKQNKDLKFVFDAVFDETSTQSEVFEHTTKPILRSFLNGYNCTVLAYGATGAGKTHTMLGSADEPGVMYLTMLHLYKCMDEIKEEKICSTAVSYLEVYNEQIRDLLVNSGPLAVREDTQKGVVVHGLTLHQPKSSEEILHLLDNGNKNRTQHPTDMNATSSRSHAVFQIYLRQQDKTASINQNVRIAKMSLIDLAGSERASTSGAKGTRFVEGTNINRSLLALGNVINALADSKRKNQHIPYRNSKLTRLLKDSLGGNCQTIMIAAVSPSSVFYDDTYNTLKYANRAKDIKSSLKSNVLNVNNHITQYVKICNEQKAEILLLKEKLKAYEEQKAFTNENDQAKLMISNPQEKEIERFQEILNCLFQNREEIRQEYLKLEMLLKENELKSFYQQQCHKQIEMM
Recombinant human KIF18A (1-467His-tagged) protein, sequence (P02550 whole entry partner): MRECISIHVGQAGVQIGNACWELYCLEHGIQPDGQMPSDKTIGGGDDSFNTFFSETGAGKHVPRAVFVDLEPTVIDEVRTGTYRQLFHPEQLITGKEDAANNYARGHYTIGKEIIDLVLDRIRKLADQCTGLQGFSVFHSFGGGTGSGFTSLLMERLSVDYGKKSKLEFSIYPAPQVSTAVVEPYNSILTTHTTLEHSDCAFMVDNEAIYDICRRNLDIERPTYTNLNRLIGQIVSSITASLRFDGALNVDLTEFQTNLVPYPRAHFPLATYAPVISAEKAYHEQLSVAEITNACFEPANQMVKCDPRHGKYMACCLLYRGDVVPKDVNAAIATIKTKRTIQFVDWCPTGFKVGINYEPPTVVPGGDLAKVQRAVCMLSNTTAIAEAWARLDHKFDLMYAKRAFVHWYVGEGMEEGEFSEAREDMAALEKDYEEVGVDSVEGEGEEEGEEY
Recombinant human KIF18A (1-467His-tagged) protein, sequence (P02554 whole entry partner): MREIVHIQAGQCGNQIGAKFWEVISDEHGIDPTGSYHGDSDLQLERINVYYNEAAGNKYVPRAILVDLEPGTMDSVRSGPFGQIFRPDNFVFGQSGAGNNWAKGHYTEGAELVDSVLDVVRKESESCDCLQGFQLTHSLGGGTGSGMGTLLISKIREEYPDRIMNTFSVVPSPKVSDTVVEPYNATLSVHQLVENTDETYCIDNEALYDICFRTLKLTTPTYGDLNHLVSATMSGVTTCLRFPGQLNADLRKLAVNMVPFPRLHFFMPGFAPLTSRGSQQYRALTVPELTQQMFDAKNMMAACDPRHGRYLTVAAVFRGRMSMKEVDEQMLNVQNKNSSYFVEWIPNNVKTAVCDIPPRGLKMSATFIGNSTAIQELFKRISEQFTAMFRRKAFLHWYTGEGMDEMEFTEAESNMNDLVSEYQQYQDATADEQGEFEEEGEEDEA

As usually defined, the IC50 is the concentration needed to halve the response being measured. `C[C@@H]1CN(c2cc(C(=O)Nc3ccc(NS(=O)(=O)[C@H](C)CO)cc3N3CCC4(CC3)CC4)cc3ccn(C)c23)CCO1` [Compound 432]: the IC50 was no more than 100 nM.

Consider `Cn1ccc2cc(NC(=O)c3ccc(S(=O)(=O)NCCO)cc3N3CCC4(CC3)CC4)nc(N3CCOCC3)c21` [Compound 476], for which the IC50 is no more than 100 nM. Consider `O=C(Nc1cc2c(c(N3CCC(F)CC3)c1)OCC2)c1ccc(S(=O)(=O)NCCO)cc1N1CCC2(CC1)CC2` [Compound 25], for which the IC50 was no more than 100 nM. With `C[C@@H]1CN(c2cc(NC(=O)c3ccc(S(=O)(=O)NCCO)cc3N3CCC4(CC3)CC4)cc3c2OCC3)CCO1` [Compound 18], the IC50 is no more than 100 nM. On to `Cn1ccc2cc(C(=O)Nc3ccc(S(=O)(=O)NCCO)cc3N3CCC4(CC3)CC4)nc(N3CCC(F)CC3)c21` [Compound 505], for which the IC50 was no more than 100 nM.

Turning to `O=C(Nc1cc2c(c(N3CCC(F)(F)CC3)n1)NCCC2)c1ccc(NS(=O)(=O)CCO)cc1N1CCC2(CC1)CC2` [Compound 542], the IC50 is no more than 100 nM.

For `C[C@@H](CO)NS(=O)(=O)c1ccc(C(=O)Nc2cc(N3CCC(F)(F)CC3)c3occc3c2)c(N2CCC3(CC2)CC3)c1` [Compound 157], the IC50 is no more than 100 nM.

Regarding `O=C(Nc1ccc(S(=O)(=O)NCCO)cc1N1CCC2(CC1)CC2)c1cc2c(c(N3CCOCC3)c1)OCC2` [Compound 60], the IC50 is no more than 100 nM. For `O=C(Nc1ccc(NS(=O)(=O)CCO)cc1N1CCC2(CC1)CC2)c1cc2c(c(OC3CCC3)n1)OCC2` [Compound 103], the IC50 was no more than 100 nM. Under `O=C(Nc1ccc(NS(=O)(=O)CCO)cc1N1CCC2(CC1)CC2)c1cc2ccoc2c(N2CCC(F)CC2)n1` [Compound 233] stands no more than 100 nM; under `Cn1ccc2cc(C(=O)Nc3ccc(NS(=O)(=O)CCO)cc3N3CCC4(CC3)CC4)cc(N3CCC4(CC4)C3)c21` [Compound 422], no more than 100 nM; under `C[C@@H]1CN(c2cc(NC(=O)c3ccc(NS(=O)(=O)CCO)cc3N3CCC4(CC3)CC4)cc3c2N(C)CC3)CCO1` [Compound 258], no more than 100 nM. For `C[C@H]1CN(c2cc(C(=O)Nc3ccc(NS(=O)(=O)CCO)cc3N3CCC4(CC3)CC4)cc3c2OCC3)CCO1` [Compound 35] the value was no more than 100 nM; for `O=C(Nc1cc2ccoc2c(OC2CCC2)n1)c1ccc(S(=O)(=O)NCCO)cc1N1CCC2(CC1)CC2` [Compound 215], no more than 100 nM; for `CN1CCc2cc(C(=O)Nc3ccc(S(=O)(=O)NCCO)cc3N3CCC4(CC3)CC4)cc(NC(C)(C)CO)c21` [Compound 315], no more than 100 nM. For the compound `C[C@@H](CO)NS(=O)(=O)c1ccc(C(=O)Nc2cc3ccn(C)c3c(N3CCC(F)(F)CC3)n2)c(N2CCC3(CC2)CC3)c1` [Compound 477], the IC50 was no more than 100 nM. Consider `C[C@@H](CO)S(=O)(=O)Nc1ccc(C(=O)Nc2cc(N3CCC(F)(F)CC3)c3c(ccn3C)c2)c(N2CCC3(CC2)CC3)c1` [Compound 397], for which the IC50 was no more than 100 nM.

Take `C[C@@H]1CN(c2cc(NC(=O)c3ccc(S(=O)(=O)N[C@@H](C)CO)cc3N3CCC4(CC3)CC4)cc3c2OCC3)CCO1` [Compound 31]: the IC50 was no more than 100 nM. As for `O=C(Nc1ccc(NS(=O)(=O)CCO)cc1N1CCC2(CC1)CC2)c1cc(N2CC3CC3C2)c2occc2c1` (stereo not shown) [Compound 170], the IC50 was no more than 100 nM. Turning to `CC(C)(CO)Nc1cc(NC(=O)c2ccc(S(=O)(=O)NCCO)cc2N2CCC3(CC2)CC3)cc2c1OCC2` [Compound 27], the IC50 was no more than 100 nM. For the compound `O=C(Nc1cc2c(c(N3CC4CC4C3)c1)OCC2)c1ccc(S(=O)(=O)NCCO)cc1N1CCC2(CC1)CC2` (stereo not shown) [Compound 26], the IC50 was no more than 100 nM. `O=C(Nc1cc2c(c(N3CCOCC3)c1)OCC2)c1ccc(NS(=O)(=O)CCO)cc1N1CCC2(CC1)CC2` [Compound 12]: the IC50 is no more than 100 nM. `Cn1ccc2cc(NC(=O)c3ccc(S(=O)(=O)NCCO)cc3N3CCC4(CC3)CC4)cc(N3CCC(F)(F)CC3)c21` [Compound 401]: the IC50 was no more than 100 nM. `Cn1ccc2cc(NC(=O)c3ccc(S(=O)(=O)NCCO)cc3N3CCC4(CC3)CC4)cc(N3CCC(C)(F)C3)c21` (stereo not shown) [Compound 408]: the IC50 is no more than 100 nM. As for `Cn1ccc2cc(NC(=O)c3ccc(NS(=O)(=O)CCO)cc3N3CCC4(CC3)CC4)nc(OC3CCC3)c21` [Compound 455], the IC50 was no more than 100 nM. Regarding `C[C@@H]1CN(c2nc(C(=O)Nc3ccc(NS(=O)(=O)[C@H](C)CO)cc3N3CCC4(CC3)CC4)cc3ccoc23)CCO1` [Compound 240], the IC50 is no more than 100 nM. For the compound `Cn1ccc2cc(C(=O)Nc3ccc(S(=O)(=O)NCCO)cc3N3CCC4(CC3)CC4)cc(OCCC(F)(F)F)c21` [Compound 437], the IC50 was no more than 100 nM. Turning to `CN1CCc2cc(NC(=O)c3ccc(S(=O)(=O)NCCO)cc3N3CCC4(CC3)CC4)nc(OC3CCC3)c21` [Compound 343], the IC50 was no more than 100 nM.

In the case of `C[C@@H]1CN(c2cc(NC(=O)c3ccc(NS(=O)(=O)CCO)cc3N3CCC4(CC3)CC4)cc3ccn(C)c23)CCO1` [Compound 386], the IC50 is no more than 100 nM. Consider `Cn1ccc2cc(C(=O)Nc3ccc(NS(=O)(=O)CCO)cc3N3CCC4(CC3)CC4)nc(OC3CCC3)c21` [Compound 487], for which the IC50 is no more than 100 nM.

Consider `C[C@@H](CO)S(=O)(=O)Nc1ccc(NC(=O)c2cc3c(c(N4CCC(F)(F)CC4)n2)OCC3)c(N2CCC3(CC2)CC3)c1` [Compound 109], for which the IC50 was no more than 100 nM. With `C[C@H]1CN(c2nc(C(=O)Nc3ccc(NS(=O)(=O)CCO)cc3N3CCC4(CC3)CC4)cc3c2OCC3)CCO1` [Compound 99], the IC50 is no more than 100 nM. Consider `C[C@@H]1CN(c2nc(C(=O)Nc3ccc(S(=O)(=O)N[C@@H](C)CO)cc3N3CCC4(CC3)CC4)cc3c2N(C)CC3)CCO1` [Compound 383], for which the IC50 is no more than 100 nM.

As for `CN1CCc2cc(C(=O)Nc3ccc(NS(=O)(=O)CCO)cc3N3CCC4(CC3)CC4)cc(NC(C)(C)CO)c21` [Compound 299], the IC50 is no more than 100 nM. `CN1CCc2cc(C(=O)Nc3ccc(NS(=O)(=O)CCO)cc3N3CCC4(CC3)CC4)cc(N3CCC(F)(F)CC3)c21` [Compound 257]: the IC50 is no more than 100 nM. Consider `C[C@@H]1CN(c2cc(C(=O)Nc3ccc(NS(=O)(=O)[C@@H](C)CO)cc3N3CCC4(CC3)CC4)cc3c2N(C)CC3)CCO1` [Compound 303], for which the IC50 was no more than 100 nM.

As for `Cn1ccc2cc(NC(=O)c3ccc(S(=O)(=O)NCCO)cc3N3CCC4(CC3)CC4)cc(NC(C)(C)CO)c21` [Compound 411], the IC50 was no more than 100 nM. For `CN1CCc2cc(C(=O)Nc3ccc(S(=O)(=O)NCCO)cc3N3CCC4(CC3)CC4)cc(N3CCC(F)(F)CC3)c21` [Compound 305] the value was no more than 100 nM; for `CN1CCc2cc(NC(=O)c3ccc(S(=O)(=O)NCCO)cc3N3CCC4(CC3)CC4)cc(N3CC(F)(F)C3)c21` [Compound 276], no more than 100 nM. On to `Cn1ccc2cc(NC(=O)c3ccc(NS(=O)(=O)CCO)cc3N3CCC4(CC3)CC4)cc(N3CCOCC3)c21` [Compound 396], for which the IC50 was no more than 100 nM. For `C[C@@H]1CN(c2cc(C(=O)Nc3ccc(NS(=O)(=O)CCO)cc3N3CCC4(CC3)CC4)cc3c2N(C)CC3)CCO1` [Compound 290] the value was no more than 100 nM. As for `Cn1ccc2cc(NC(=O)c3ccc(NS(=O)(=O)CCO)cc3N3CCC4(CC3)CC4)cc(N3CCC(F)CC3)c21` [Compound 393], the IC50 was no more than 100 nM. As for `O=C(Nc1ccc(NS(=O)(=O)CCO)cc1N1CCC2(CC1)CC2)c1cc2c(c(N3CC4CC4C3)c1)OCC2` (stereo not shown) [Compound 42], the IC50 was no more than 100 nM.

Take `C[C@H](CO)NS(=O)(=O)c1ccc(C(=O)Nc2cc3c(c(N4CCO[C@H](C)C4)n2)N(C)CC3)c(N2CCC3(CC2)CC3)c1` [Compound 352]: the IC50 is no more than 100 nM. For the compound `O=C(Nc1cc2scnc2c(N2CCC(F)(F)CC2)n1)c1ccc(NS(=O)(=O)CCO)cc1N1CCC2(CC1)CC2` [Compound 520], the IC50 was no more than 100 nM.

With `O=C(Nc1ccc(NS(=O)(=O)CCO)cc1N1CCC2(CC1)CC2)c1cc2c(c(N3CCC(F)CC3)c1)OCC2` [Compound 41], the IC50 was no more than 100 nM. Take `Cn1ccc2cc(C(=O)Nc3ccc(S(=O)(=O)NCCO)cc3N3CCC4(CC3)CC4)nc(N3CC4CC4C3)c21` (stereo not shown) [Compound 506]: the IC50 is no more than 100 nM. As for `O=C(Nc1cc2ccoc2c(OC2CCC2)n1)c1ccc(NS(=O)(=O)CCO)cc1N1CCC2(CC1)CC2` [Compound 199], the IC50 was no more than 100 nM.

For `CN1CCc2cc(NC(=O)c3ccc(NS(=O)(=O)CCO)cc3N3CCC4(CC3)CC4)nc(N3CCC(F)(F)CC3)c21` [Compound 321], the IC50 is no more than 100 nM. Under `CC(C)(CO)Nc1cc(NC(=O)c2ccc(NS(=O)(=O)CCO)cc2N2CCC3(CC2)CC3)cc2ccoc12` [Compound 139] stands no more than 100 nM. As to `O=C(Nc1cc2c(c(N3CCC(F)(F)CC3)c1)OCCO2)c1ccc(NS(=O)(=O)CCO)cc1N1CCC2(CC1)CC2` [Compound 543], the IC50 is no more than 100 nM. With `CN1CCc2cc(NC(=O)c3ccc(S(=O)(=O)NCCO)cc3N3CCC4(CC3)CC4)cc(N3CCOCC3)c21` [Compound 284], the IC50 is no more than 100 nM.

On to `C[C@H](CO)NS(=O)(=O)c1ccc(C(=O)Nc2cc3c(c(N4CCC(F)(F)CC4)c2)OCC3)c(N2CCC3(CC2)CC3)c1` [Compound 30], for which the IC50 is no more than 100 nM. For the compound `O=C(Nc1cc2ccoc2c(N2CCC3(CC3)C2)n1)c1ccc(NS(=O)(=O)CCO)cc1N1CCC2(CC1)CC2` [Compound 198], the IC50 is no more than 100 nM. Consider `CN1CCc2cc(NC(=O)c3ccc(S(=O)(=O)NCCO)cc3N3CCC4(CC3)CC4)nc(N3CCC(F)(F)CC3)c21` [Compound 337], for which the IC50 was no more than 100 nM. In the case of `O=C(Nc1ccc(S(=O)(=O)NCCO)cc1N1CCC2(CC1)CC2)c1cc2c(c(N3CC4CC4C3)c1)OCC2` (stereo not shown) [Compound 58], the IC50 was no more than 100 nM.

Consider `Cn1ccc2cc(C(=O)Nc3ccc(S(=O)(=O)NCCO)cc3N3CCC4(CC3)CC4)nc(N3CCC4(CC4)C3)c21` [Compound 502], for which the IC50 is no more than 100 nM.

For `Cn1ccc2cc(C(=O)Nc3ccc(NS(=O)(=O)CCO)cc3N3CCC4(CC3)CC4)cc(N3CCC(F)CC3)c21` [Compound 425], the IC50 was no more than 100 nM.
